Laboratory results published in US20210395295A1, “INHIBITORS OF GLUCOCORTICOID RECEPTOR” (ORIC Pharmaceuticals, Inc., priority 2015, published 2021).

Legend:
[1] = target: T1, GR (Homo sapiens, UniProt P04150); assay: In vitro GR luciferase reporter assay (antagonist mode); format: cell-based; conditions: CHO-K1-GR-MMTV-Luc reporter cells, 10 nM dexamethasone, 18-24 hours
T1 construct: expressed in transfected cells; host or cells: CHO-K1 (Chinese hamster ovary) reporter cells carrying GR and MMTV-Luc
T1 sequence (P04150 1-777): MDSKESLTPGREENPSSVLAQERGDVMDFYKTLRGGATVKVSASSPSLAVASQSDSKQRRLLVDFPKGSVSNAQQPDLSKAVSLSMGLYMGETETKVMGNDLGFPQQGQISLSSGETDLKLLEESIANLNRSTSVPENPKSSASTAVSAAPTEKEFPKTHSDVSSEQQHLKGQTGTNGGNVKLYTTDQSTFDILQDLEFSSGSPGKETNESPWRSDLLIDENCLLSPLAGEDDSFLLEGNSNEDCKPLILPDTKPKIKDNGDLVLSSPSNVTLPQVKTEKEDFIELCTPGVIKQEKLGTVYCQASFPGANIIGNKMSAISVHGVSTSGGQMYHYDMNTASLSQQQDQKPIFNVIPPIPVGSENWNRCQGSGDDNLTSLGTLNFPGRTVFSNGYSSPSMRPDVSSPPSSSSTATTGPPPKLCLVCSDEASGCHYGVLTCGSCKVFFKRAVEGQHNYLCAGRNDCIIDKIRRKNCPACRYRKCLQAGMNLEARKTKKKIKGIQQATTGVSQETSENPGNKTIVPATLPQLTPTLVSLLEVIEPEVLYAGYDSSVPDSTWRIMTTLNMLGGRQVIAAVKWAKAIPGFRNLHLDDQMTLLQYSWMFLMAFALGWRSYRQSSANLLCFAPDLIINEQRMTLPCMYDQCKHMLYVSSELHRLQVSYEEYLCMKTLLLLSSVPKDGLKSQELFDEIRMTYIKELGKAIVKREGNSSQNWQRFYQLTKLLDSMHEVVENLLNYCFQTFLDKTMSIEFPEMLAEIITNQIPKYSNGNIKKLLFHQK
Text: Example 4: In Vitro GR Luciferase Reporter Assay
• Cell Line: CIH-K1-GR-MMTV-Luc reporter cells • Culture Media: DMEM (with phenol red) +10% FBS • Assay Media: DMEM (without phenol red) +10% CSS
Culture CHO-K1-GR-MMTV-Luc reporter cells in 15 cm plates in Culture Media at conditions less than 90% confluence.
Prepare 200× DMSO 1:5 serial dilutions of control and test compounds in 96-well non-sterile V bottom plate in DMSO, 8 serial dilutions for each compound.
Prepare 5× Assay Media diluted compound serial dilutions in 96-well non-sterile V bottom plate: Add 97.5 uL/well of Assay Media into 96-well then add 2.5 ul of 200× concentration of compounds and mix well.
Seed cells for Antagonist Assay: 1.5×10^6 CHO-K1-GR-MMTV-Luc reporter cells were seeded in a Corning 3707 flat clear bottom 384-well white TC plate in 20 ul of Assay Media containing 12.5 nM Dexamethasone (final concentration=10nM). […]
Read plates: Equilibrate appropriate amount of Promega OneGlo luciferase reagent to room temperature. Remove the plates from incubator and add 25 uL of OneGlo reagent/well by multiple channel pipette and read the plates with Tecan F500 luminometer within 3 minutes.
The ability of the compounds disclosed herein to inhibit GR activity was quantified and the respective IC50 value was determined. […]

[2] = system: AR; assay: In vitro AR agonism assay in LNAR reporter cell line; format: cell-based; conditions: for Relative Maximum Response to Mifepristone: LNAR cells (overexpressed AR, 4xARE-Luc), RPMI + 10% CSS, Mifepristone maximum response set to 1
Protocol: Example 5: In Vitro AR Agonisin Assay
The AR agonism assay was done in the LNAR reporter cell line which has overexpressed AR and 4×ARE-Luc genes. This cell line is sensitive to even minor partial AR agonism activity in hormone-deprived media (CSS). The assays were done in RPMI (without phenol red) +10% CSS using 6000 LNAR cells/well in 384-well plates and compounds were incubated with cells in […] incubator for 8-24 hrs. OneGlo reagent (25 uL/well) was added and plates were read with luminometer within 3 minutes.
To gauge the AR partial agonism activity, Mifepristone is included as a standard in the assay. AR agonism assay results are quantified by determining the ratio of the maximum response of individual compounds to the maximum response of Mifepristone (arbitrarily set to 1). Values of Table 4 are reported as Relative Maximum Response to Mifepristone. This general trend of AR agonism was shown for the class of compounds described herein.

Row | SMILES | IC50 [1] [nM] | Relative Maximum Response to Mifepristone [2] | other results
1 | Cc1ccc([C@H]2C[C@@]3(C)[C@@H](CC[C@@]3(O)C#CC(C)(F)F)[C@@H]3CCC4=CC(=O)CCC4=C32)cc1F | > 100 | – | –
2 | [2H]C([2H])([2H])C#C[C@]1(O)[C@H](C)C[C@H]2[C@@H]3CCC4=CC(=O)CCC4=C3[C@@H](c3cc(F)c(C)c(F)c3)C[C@@]21C | ≤ 100 | – | –
3 | CC(C)C#C[C@]1(O)CC[C@H]2[C@@H]3CCC4=CC(=O)CCC4=C3[C@@H](c3ccc(N(C)C)c(F)c3)C[C@@]21C | – | A (A: ≤0.4) | –
4 | CN(C)c1ccc([C@H]2C[C@@]3(C)[C@@H](CC[C@@]3(O)C#CC(C)(C)C)[C@@H]3CCC4=CC(=O)CCC4=C32)cc1 | – | A (A: ≤0.4) | –
5 | CC#C[C@]1(O)CC[C@H]2[C@@H]3CCC4=CC(=O)CCC4=C3[C@@H](c3ccc(N(C)C)cc3)C[C@@]21C [Mifepristone, reference compound] | – | – | concentration showing strong partial AR agonism ([2]; LNAR reporter cells, hormone-deprived media (CSS)): ≥ 10 nM
